Test results: PubChem BioAssay AID1845228

Details: pampa; 60.0 min; 50.0 µM

SMILES	Papp [×10⁻⁶ cm/s]
COC(=O)c1ccccc1O[C@@H]1O[C@H](CO[C@@H]2OC[C@@H](O)[C@H](O)[C@H]2O)[C@@H](O)[C@H](O)[C@H]1O	< 1
O=C1[C@H](CC[C@H](O)c2ccc(F)cc2)[C@@H](c2ccc(O)cc2)N1c1ccc(F)cc1	< 1
CO[C@H]1/C=C\C=C(\C)C(=O)NC2=CC(=O)C(NCCN(C)C)=C(C[C@@H](C)C[C@H](OC)[C@H](O)[C@@H](C)/C=C(/C)[C@@H]1OC(N)=O)C2=O	11.9
CCS(=O)(=O)N1CC(CC#N)(n2cc(-c3ncnc4[nH]ccc34)cn2)C1	< 1
CCNC(=O)c1cc2c(-c3cc(OCCN4CCCC4)c(Cl)cc3Cl)nc(N)nc2s1	123
CC1(C#N)CCN(c2c(C(=O)N3CCN(S(C)(=O)=O)CC3)cnc3ccc(F)cc23)CC1	19
CC(=CCCC1=CCC(C2=CC(=O)OC2O)OC1O)CCC1=C(C)CCCC1(C)C (stereo not given)	9.8
Cn1c(CCCCCCC(=O)NO)nc2cc(N(CCCl)CCCl)ccc21	< 1
COC(=O)[C@]12CCC(C)(C)C[C@@H]1[C@@H]1C(=O)C=C3[C@@]4(C)C=C(C#N)C(=O)C(C)(C)[C@@H]4CC[C@@]3(C)[C@]1(C)CC2	8
CCCCC/C=C/C(=O)CCc1ccc(O)c(OC)c1	187
Cc1c2ccncc2c(C)c2c1[nH]c1ccccc12	> 300
CCN1CCN(C(=O)N[C@@H](C(=O)N[C@]2(OC)C(=O)N3C(C(=O)O)=C(CSc4nnnn4C)CS[C@@H]32)[C@H](C)O)C(=O)C1=O	< 1
CCNC(=O)c1noc(-c2cc(C(C)C)c(O)cc2O)c1-c1ccc(CN2CCOCC2)cc1	117
Cc1[nH]c2ccccc2c1CCNCc1ccc(C=CC(=O)NO)cc1	< 1
Cn1nnnc1Sc1ncnc2scc(-c3cccc(C#N)c3)c12	76
CN1CCCC(=C(c2cccs2)c2cccs2)C1	< 1
NC(=O)N1CCC(CC(=O)N2CCC([C@H]3c4ncc(Br)cc4CCc4cc(Cl)cc(Br)c43)CC2)CC1	73.5
Cc1onc(-c2c(Cl)cccc2Cl)c1CC(=O)NCc1ccc(OCC(F)(F)F)nc1	204
Cn1nnnc1SCC1=C(C(=O)O)N2C(=O)[C@H](NC(=O)C(O)c3ccccc3)C2SC1 (stereo not given in full)	< 1
COc1cc2nc(N3CCC(N4CCCCC4)CC3)nc(NC3CCCCCC3)c2cc1OC	116
CNC(=O)C1CCN(C(=O)c2ccc(-c3ncc4cnc(-c5ccccc5)cn34)cc2)CC1	12
N[C@@H](Cc1ccc(N(CCCl)CCCl)cc1)C(=O)O	131
CON(C)Cc1ccc(O)c2c1C[C@H]1C[C@H]3[C@H](N(C)C)C(=O)C(C(N)=O)=C(O)[C@@]3(O)C(=O)C1=C2O	2
CCCN(CCC)CCc1cccc2c1CC(=O)N2	34

SMILES	Papp [×10⁻⁶ cm/s]
Cn1nnnc1Sc1ncnc2scc(-c3ccc4c(c3)OCO4)c12	240
CC(=O)OC[C@@H]1O[C@@H](n2ccc(=O)[nH]c2=O)[C@H](OC(C)=O)[C@H]1OC(C)=O	< 1
Cc1ncc(COP(=O)(O)O)c(C=O)c1O	< 1
C/C1=C\CC[C@]2(C)O[C@H]2C(=O)c2c(C)coc2C1	122
COc1cc(/C=C/C(=O)NCCn2c(C(F)(F)F)cc3ccccc32)cc(OC)c1OC	> 300
COc1cc([C@@H]2c3cc4c(cc3[C@@H](O[C@@H]3O[C@@H]5CO[C@@H](C)O[C@@H]5[C@H](O)[C@@H]3O)[C@H]3COC(=O)[C@H]23)OCO4)cc(OC)c1O	3
O=C1NC(=O)C(c2ccccc2)(c2ccccc2)N1	42
Cc1cc(C)nc(NC(=S)N2CCN(c3ccc(C(F)(F)F)cn3)CC2)c1	137
COc1ccc(Cn2c(-c3ccccc3)c(-c3ccccc3)c3c(=N)n(CC(OC)OC)cnc32)cc1	272
O=C(N[C@@H](CO)[C@H](O)c1ccc([N+](=O)[O-])cc1)C(Cl)Cl	3
Nc1ncnc2c1ncn2[C@@H]1O[C@H](CSCC[C@H](N)C(=O)O)[C@@H](O)[C@H]1O	< 1
Cc1cc(=O)c(C(=O)N[C@@H](C(=O)N[C@@H]2C(=O)N3C(C(=O)O)=C(CSc4nnnn4C)CS[C@H]23)c2ccc(O)cc2)c[nH]1	< 1
O=C(O)C1CN(Cc2ccc(-c3nc4cc(Cc5ccccc5F)ccc4s3)c(F)c2)C1	> 300
Cc1oc(=O)oc1COC(=O)N1CC[C@@H](N2CC/C(=C\C3=C(C(=O)O)N4C(=O)[C@@H](NC(=O)/C(=N/O)c5nsc(N)n5)[C@H]4SC3)C2=O)C1	3
Cc1ccc(-c2csc3ncnc(Sc4nnnn4C)c23)cc1	> 300
CCOC(=N)c1nc2ccc3ncnc(Nc4cc(F)c(F)cc4Cl)c3c2s1	1.2
N[C@@H](C(=O)N[C@@H]1C(=O)N2C(C(=O)O)=C(Cl)CC[C@H]12)c1ccccc1	< 1
CC(C)N(CCCCOCC(=O)NS(C)(=O)=O)c1cnc(-c2ccccc2)c(-c2ccccc2)n1	9
COc1ccc2c(c1)C(c1ccc(F)cc1)=C(CN1CCCC1)CO2	100
COc1ccc(Cn2c(-c3ccccc3)c(-c3ccccc3)c3c(=N)n(CCO)cnc32)cc1	279
Cc1cc(CNC(=O)c2ccc3c(c2)n(CC2CC2)c(=O)n3C2CCCCC2)on1	> 300
N=c1c2c(-c3ccccc3)c(-c3ccccc3)n(CCc3ccccc3)c2ncn1CCCCCO	183
Nc1ccc(-c2ccc3ncc4ccc(=O)n(-c5cccc(C(F)(F)F)c5)c4c3c2)cn1	> 300
Nc1c(C(=O)Nc2ccc(Cl)c(C(F)(F)F)c2)sc2nc3c(cc12)N1CCC3CC1	213

SMILES	Papp [×10⁻⁶ cm/s]
CC(=O)OCC1=C(C(=O)O)N2C(=O)C(NC(=O)Cc3cccs3)C2SC1 (stereo not given)	2
CN(CCCCCCN(C)C(=O)Oc1ccc[n+](C)c1)C(=O)Oc1ccc[n+](C)c1	< 1
O=C(N[C@H]1CCS[C@H]2CCC[C@@H](C(=O)O)N2C1=O)[C@@H](S)Cc1ccccc1	< 1
NCC1(CC(=O)O)CCCCC1	< 1
CN(C)CCn1cnc2c(c(-c3ccccc3)c(-c3ccccc3)n2Cc2ccccc2)c1=N	76
CN(C)C(=O)NC1CCC(CCN2CCN(c3cccc(Cl)c3Cl)CC2)CC1 (stereo not given)	100
Nc1ncnc2c1ncn2[C@H]1O[C@@H](CSCC[C@@H](N)C(=O)O)[C@H](O)[C@@H]1O	< 1
CCn1c(C(=O)N(C2CC2)C2CC2)cc2c3c(ncn3C)c(Nc3cc(C)n(C)n3)nc21	31
COc1ccc(S(=O)(=O)Nc2cccnc2Nc2ccc(O)cc2)cc1	13
CC[C@@]1(O)C(=O)OCc2c1cc1n(c2=O)Cc2cc3ccccc3nc2-1	23
O=C(O)[C@@H]1C[C@H]2C[C@@H](CCc3nn[nH]n3)CC[C@H]2CN1	3
Oc1c(Cl)cc(Cl)cc1Sc1cc(Cl)cc(Cl)c1O	288
N=c1c2c(-c3ccccc3)c(-c3ccccc3)n(CCc3ccccc3)c2ncn1[C@H](CO)Cc1ccccc1	< 1
COC(=O)N[C@H](C(=O)N1CCC[C@H]1C(=O)Nc1ccc([C@@H]2CC[C@@H](c3ccc(NC(=O)[C@@H]4CCCN4C(=O)[C@@H](NC(=O)OC)C(C)C)cc3)N2c2ccc(C(C)(C)C)cc2)cc1)C(C)C	< 1
CO[C@@]1(NC(=O)C2SC(=C(C(N)=O)C(=O)O)S2)C(=O)N2C(C(=O)O)=C(CSc3nnnn3C)CS[C@@H]21 (stereo not given in full)	< 1
N#Cc1cccc(-c2nc(-c3cccnc3)no2)c1	150
FC(F)(F)c1ccccc1-c1cc(C(F)(F)F)c2nc(C3=NOC4(CCCCC4)C3)[nH]c2c1	8
CN1CCN(c2ccc(C(=O)Nc3n[nH]c4ccc(Cc5cc(F)cc(F)c5)cc34)c(NC3CCOCC3)c2)CC1	113
CC(=O)Nc1c(I)c(C(=O)N[C@H]2C(O)O[C@H](CO)[C@@H](O)[C@@H]2O)c(I)c(N(C)C(C)=O)c1I (stereo not given in full)	2
CC(=O)OCC1=C(C(=O)O)N2C(=O)[C@@H](NC(=O)[C@H](N)c3ccccc3)[C@H]2SC1	< 1
O=C(O)Cc1ccc2c(c1)C(=O)c1ccccc1CO2	< 1
CC(OC(=O)NCC1(CC(=O)O)CCCCC1)OC(=O)C(C)C (stereo not given)	143
OCCOCCN1CCN(C(c2ccccc2)c2ccc(Cl)cc2)CC1 (stereo not given)	114
Cn1c2cc(S(C)=O)sc2c2cnn(Cc3ccccc3F)c(=O)c21 (stereo not given)	49

SMILES	Papp [×10⁻⁶ cm/s]
O=[N+]([O-])c1nccn1CO[C@@H](CO)[C@H](O)CO	< 1
CO/S(=N\S(=O)(=O)c1ccc(Cl)cc1)c1ccc([N+](=O)[O-])cc1 (stereo not given)	4
Cc1ccc(-c2c(C(=O)CF)n(CCCO)c3ncnc(N)c23)cc1	18
CC(=O)N1CCN(C(=O)c2ccc(-c3ncc4cnc(-c5cccc(F)c5)cn34)cc2)CC1	< 1
NC(=O)[C@@H]1C[C@]2(NC(=O)NC2=O)c2cc(F)ccc2O1	< 1
COc1cc(Cc2cnc(N)nc2N)c(C(C)C)cc1OC	48
CC[C@@H](c1ccc(F)c(F)c1)n1c(C(=O)OC)c(-c2ccno2)[nH]c1=S	195
COC(=O)C[C@@H](C(=O)OC)n1cnc2c(c(-c3ccccc3)cn2Cc2ccccc2)c1=N	26
NC(=O)[C@H](Cc1ccccc1)NC(=O)[C@H](Cc1ccccc1)NC(=O)[C@@H]1CCCN1C(=O)[C@@H](N)Cc1ccc(O)cc1	< 1
COc1ccccc1NC(=O)C1=C(C)Nc2c(C(=O)Nc3ccc(F)cc3)cnn2C1c1ccc(Cl)cc1 (stereo not given)	< 1
CC(=O)OC(C)OC(=O)C(C)c1ccc(-c2ccccc2)c(F)c1 (stereo not given)	> 300
CC(C)N(C[C@H]1O[C@@H](n2cnc3c(N)ncnc32)[C@H](O)[C@@H]1O)C1CC(CCc2nc3ccc(C(C)(C)C)cc3[nH]2)C1 (stereo not given in full)	< 1
Nc1ncnc2c1ncn2CCNCCCCCO	< 1
CC1=C(/C=C/C(C)=C/C=C/C(C)=C/C(=O)O)C(C)(C)CCC1	< 1
CO/N=C(/C(=O)N[C@@H]1C(=O)N2C(C(=O)O)=CCS[C@H]12)c1csc(N)n1	< 1
c1ccc(CNCCNCc2ccccc2)cc1	107
N=c1c2c(-c3ccccc3)c(-c3ccccc3)n(Cc3ccccc3)c2ncn1Cc1ccc2c(c1)OCO2	3
Nc1c2ccccc2nc2ccccc12	36
CC(=O)O[C@H]1C[C@@H](C)O[C@H]2O[C@@H]3CC4CC[C@@H]5C(CC[C@]6(C)[C@@H](C7=CC(=O)OC7)CC[C@]56O)[C@@]4(C=O)C[C@H]3O[C@]21O (stereo not given in full)	54
CC(=O)c1cc2c(s1)c1cnn(Cc3ccccc3F)c(=O)c1n2C	> 300
COc1cc(Cc2cnc(N)nc2N)cc(OC)c1OC	14
Cc1nc(C2CCCCC2)c(-c2ccc(S(N)(=O)=O)c(F)c2)o1	172
CN(C)c1cc2c(cc1Sc1nc3c(N)nccc3n1CCNCC(C)(C)C)OCO2	20
